Legend:
[1] = target: Proto-oncogene tyrosine-protein kinase Src (Homo sapiens, UniProt P12931); test: Inhibition of recombinant human His-tagged full length SRC expressed in baculovirus expression system using tyrosine-2 peptide as substrate incubated for 1 hr by Z'-LYTE assay
[2] = target: Fibroblast growth factor receptor 1 (Homo sapiens, UniProt P11362); test: Inhibition of recombinant human His-tagged FGFR1 (308 to 731 residues) expressed in baculovirus expression system using tyrosine-4 peptide as substrate incubated for 1 hr by Z'-LYTE assay
[3] = target: T1, Mitogen-activated protein kinase kinase kinase 7 (Homo sapiens, UniProt O43318); test: Inhibition of tracer 222 binding to recombinant human His-tagged TAK1 (437 to 504 residues) expressed in baculovirus expression system […] incubated for 60 mins by Lanthascreen assay
T1 sequence (O43318 whole entry): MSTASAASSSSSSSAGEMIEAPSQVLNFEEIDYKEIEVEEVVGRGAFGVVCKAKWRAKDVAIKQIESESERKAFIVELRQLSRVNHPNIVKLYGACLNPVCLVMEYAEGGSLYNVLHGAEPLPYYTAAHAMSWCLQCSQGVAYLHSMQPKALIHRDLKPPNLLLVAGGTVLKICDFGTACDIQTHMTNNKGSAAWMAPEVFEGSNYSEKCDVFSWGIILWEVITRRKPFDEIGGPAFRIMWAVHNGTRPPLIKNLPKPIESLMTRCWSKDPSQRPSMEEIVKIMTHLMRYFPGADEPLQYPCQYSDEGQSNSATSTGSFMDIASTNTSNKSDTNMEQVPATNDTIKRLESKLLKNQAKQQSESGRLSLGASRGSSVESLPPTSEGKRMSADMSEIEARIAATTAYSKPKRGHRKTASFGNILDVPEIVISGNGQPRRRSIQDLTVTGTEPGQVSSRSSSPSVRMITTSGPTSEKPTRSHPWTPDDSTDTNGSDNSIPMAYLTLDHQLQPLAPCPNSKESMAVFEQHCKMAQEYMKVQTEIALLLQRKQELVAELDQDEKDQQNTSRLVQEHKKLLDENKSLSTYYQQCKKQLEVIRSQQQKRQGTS

Proto-oncogene tyrosine-protein kinase Src, sequence (P12931 2-536 limits assumed): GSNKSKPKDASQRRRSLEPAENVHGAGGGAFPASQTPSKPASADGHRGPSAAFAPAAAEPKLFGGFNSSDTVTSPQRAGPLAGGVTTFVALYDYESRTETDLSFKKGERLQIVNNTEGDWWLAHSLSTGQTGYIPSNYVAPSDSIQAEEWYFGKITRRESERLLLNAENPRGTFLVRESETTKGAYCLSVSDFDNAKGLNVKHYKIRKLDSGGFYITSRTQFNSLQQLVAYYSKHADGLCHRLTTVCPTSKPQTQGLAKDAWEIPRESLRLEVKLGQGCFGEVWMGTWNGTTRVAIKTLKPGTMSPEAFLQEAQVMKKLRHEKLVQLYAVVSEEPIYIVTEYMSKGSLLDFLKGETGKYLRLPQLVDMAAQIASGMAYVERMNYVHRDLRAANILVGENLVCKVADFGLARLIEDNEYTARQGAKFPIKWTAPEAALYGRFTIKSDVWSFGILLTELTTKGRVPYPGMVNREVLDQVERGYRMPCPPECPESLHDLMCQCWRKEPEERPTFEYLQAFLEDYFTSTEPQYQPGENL
Fibroblast growth factor receptor 1, sequence (P11362 whole entry, the tested form may be a part): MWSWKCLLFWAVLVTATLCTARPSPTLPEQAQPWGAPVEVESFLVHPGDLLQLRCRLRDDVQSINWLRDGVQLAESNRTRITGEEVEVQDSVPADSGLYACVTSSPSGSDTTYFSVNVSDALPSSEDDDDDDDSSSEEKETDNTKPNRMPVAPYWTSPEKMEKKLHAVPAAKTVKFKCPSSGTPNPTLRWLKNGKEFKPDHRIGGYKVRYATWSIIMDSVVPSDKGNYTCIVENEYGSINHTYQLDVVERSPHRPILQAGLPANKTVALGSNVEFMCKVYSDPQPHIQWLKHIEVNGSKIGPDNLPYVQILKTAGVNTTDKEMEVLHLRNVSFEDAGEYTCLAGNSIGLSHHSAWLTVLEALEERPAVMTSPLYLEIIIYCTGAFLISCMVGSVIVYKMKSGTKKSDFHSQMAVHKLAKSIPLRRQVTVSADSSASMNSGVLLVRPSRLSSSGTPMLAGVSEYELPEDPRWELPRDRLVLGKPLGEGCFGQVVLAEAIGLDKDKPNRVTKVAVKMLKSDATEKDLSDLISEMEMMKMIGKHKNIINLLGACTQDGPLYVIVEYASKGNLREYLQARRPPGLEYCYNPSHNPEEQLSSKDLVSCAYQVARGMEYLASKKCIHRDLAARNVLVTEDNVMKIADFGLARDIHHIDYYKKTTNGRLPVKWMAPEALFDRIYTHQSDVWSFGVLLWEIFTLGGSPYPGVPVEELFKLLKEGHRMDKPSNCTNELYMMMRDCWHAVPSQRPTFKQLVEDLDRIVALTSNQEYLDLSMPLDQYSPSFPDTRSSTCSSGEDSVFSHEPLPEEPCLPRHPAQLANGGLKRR

`C=CC(=O)Nc1ccccc1Nc1nc(Nc2ccc(N3CCN(C)CC3)cc2)ncc1-c1ccc(C(C)=O)cc1` showed an IC50 [1] of 6 nM, an IC50 [2] of 72 nM and an IC50 [3] of 1490 nM.
With `C=CC(=O)Nc1ccccc1Nc1nc(Nc2ccc(N3CCN(C)CC3)cc2)ncc1-c1cccs1` the IC50 [1] was 3 nM, the IC50 [2] was 17 nM and the IC50 [3] was 543 nM.
For `C=CC(=O)Nc1ccccc1Nc1nc(Nc2ccc(N3CCN(C)CC3)cc2)ncc1C(=O)Nc1ccc(Oc2ccccc2)cc1`, the IC50 [1] was > 3330 nM and the IC50 [2] was > 10000 nM.
For `C=CC(=O)Nc1ccccc1Nc1nc(Nc2ccc(N3CCN(C)CC3)cc2)ncc1C(=O)Nc1c(C)cc(C)cc1Cl`, the IC50 [2] was > 3330 nM.
For `C=CC(=O)Nc1ccccc1Nc1nc(Nc2ccc(N3CCN(C)CC3)cc2)ncc1OCc1ccc(Oc2ccccc2)cc1`, the IC50 [1] was 6 nM and the IC50 [2] was 1050 nM.
`C=CC(=O)Nc1ccccc1Nc1nc(Nc2ccc(N3CCN(C)CC3)cc2)ncc1-c1ccc(Oc2ccccc2)cc1` gave an IC50 [1] of 5 nM, an IC50 [2] of 89 nM and an IC50 [3] of 5460 nM.
For `C=CC(=O)Nc1ccccc1Nc1nc(Nc2ccc(N3CCN(C)CC3)cc2)ncc1C(=O)Nc1c(C)cc(Cl)cc1Cl`, the IC50 [2] was > 10000 nM.
With `C=CC(=O)Nc1ccccc1Nc1nc(Nc2ccc(N3CCN(C)CC3)cc2)ncc1C(=O)Nc1cc(OC)c(OC)cc1C` the IC50 [2] was 6710 nM.
`C=CC(=O)Nc1ccccc1Nc1nc(Nc2ccc(N3CCN(C)CC3)cc2)ncc1Cl` showed an IC50 [1] of 4 nM and an IC50 [2] of 54 nM.
In the case of `C=CC(=O)Nc1ccccc1Nc1nc(Nc2ccc(N3CCN(C)CC3)cc2)ncc1OCc1c(C)cccc1Cl`, the IC50 [1] is reported as 3 nM and the IC50 [2] is reported as 373 nM.
Work on `C=CC(=O)Nc1ccccc1Nc1nc(Nc2ccc(N3CCN(C)CC3)cc2)ncc1C(=O)Nc1c(Cl)c(OC)cc(OC)c1Cl` yielded an IC50 [2] of 391 nM.
Work on `C=CC(=O)Nc1ccccc1Nc1nc(Nc2ccc(N3CCN(C)CC3)cc2)ncc1OCc1ccc(C)cc1` yielded an IC50 [1] of 5 nM and an IC50 [2] of 119 nM.
In the case of `C=CC(=O)Nc1ccccc1Nc1nc(Nc2ccc(N3CCN(C)CC3)cc2)ncc1C(=O)Nc1c(C)cc(C#N)cc1Cl`, the IC50 [2] is reported as > 10000 nM.
For `C=CC(=O)Nc1ccccc1Nc1nc(Nc2ccc(N3CCN(C)CC3)cc2)ncc1C(=O)Nc1cc(C)cc(Cl)c1`, the IC50 [2] was > 10000 nM.
`C=CC(=O)Nc1ccccc1Nc1nc(Nc2ccc(N3CCN(C)CC3)cc2)ncc1-c1ccc(OC)nc1` was tested, and the IC50 [1] was 6 nM, the IC50 [2] was 20 nM and the IC50 [3] was 1890 nM.
For `C=CC(=O)Nc1ccccc1Nc1nc(Nc2ccc(N3CCC(N4CCN(C)CC4)CC3)cc2)ncc1C(=O)Nc1c(C)cccc1Cl`, the IC50 [1] was > 10000 nM.
For `C=CC(=O)Nc1ccccc1Nc1nc(Nc2ccc(N3CCN(C)CC3)cc2)ncc1-c1ccoc1`, the IC50 [1] was 2 nM, the IC50 [2] was 12 nM and the IC50 [3] was 224 nM.
With `C=CC(=O)Nc1ccccc1Nc1nc(Nc2ccc(N3CCN(C)CC3)cc2)ncc1C(=O)Nc1ccccc1CC` the IC50 [2] was > 10000 nM.

Reference: ChEMBL document CHEMBL4354843, “Structure-Based Design of a Potent and Selective Covalent Inhibitor for SRC Kinase That Targets a P-Loop Cysteine” (J Med Chem, 2020)
